From PMC11062899, “De novo development of small cyclic peptides that are orally bioavailable” (Nature Chemical Biology, 2023)
“And” between values parts separate entries of the source, which are not always exact repeats. Equal values may be shown once.

Experiments:
[1] = biological target: T1, porcine pepsin (Sus scrofa, UniProt P00791); experiment: Peptide stability in simulated gastric fluid (SGF); assay type: in vitro ADME; settings: for SGF stability, Residual peptide Average / SGF stability, Residual peptide: after 8 h vs 0 h (TIC); for SGF stability, Residual peptide Average: average of R1-R3; for SGF stability, Residual peptide: single replicates R1-R3; for remaining at 8 h: simulated gi fluid, 37 °C, pH 1.2, read-out: Proteolytic stability: SGF (8 h) % remaining
T1 construct: 0.32 g of porcine pepsin (Sigma-Aldrich, P7125) was dissolved under gentle agitation; purchased Sigma-Aldrich P7125
T1 sequence (P00791 60-385): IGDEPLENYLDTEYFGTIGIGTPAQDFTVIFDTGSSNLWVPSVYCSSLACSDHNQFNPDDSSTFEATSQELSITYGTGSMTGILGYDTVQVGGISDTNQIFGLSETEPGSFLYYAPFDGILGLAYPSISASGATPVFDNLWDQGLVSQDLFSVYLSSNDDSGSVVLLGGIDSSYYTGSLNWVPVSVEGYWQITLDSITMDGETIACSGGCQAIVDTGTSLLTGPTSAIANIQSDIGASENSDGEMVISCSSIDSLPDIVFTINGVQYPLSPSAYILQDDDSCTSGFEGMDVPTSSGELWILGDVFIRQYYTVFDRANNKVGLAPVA
Summary of the method: (§1)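 Peptide from a 1 mM DMSO stock was added to fluid pre-warmed at 37 °C. SGF was pH 1.2 NaCl with porcine pepsin (0.32 g per 100 ml), and SIF was pH 6.8 potassium phosphate with porcine pancreatin (1 g per 100 ml). Supernatant peptide was quantified by LC–MS, with residual expressed as T1/T0.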

[2] = Passive artificial membrane permeability (PAMPA); settings: for PAMPA permeability: % permeability: 50 μM, 12–18 h, acceptor concentration relative to equilibrium; for Papp at 50 μM / Permeability% Average / Permeability% R1 / Permeability% R3: PAMPA; for Papp at 50 μM: pH 7.4; for Permeability% Average: average of R1-R3; for Permeability% R1: replicate R1; for Permeability% R1 / Permeability% R3: TIC of top well sample relative to sample at theoretical equilibrium; for Permeability% R3: replicate R3
[3] = biological target: human α-thrombin (Homo sapiens, UniProt P00734); experiment: Protease inhibition, Ki for human α-thrombin (fluorogenic substrate Z-Gly-Gly-Arg-AMC); assay type: biochemical; settings: replicates R1-R3
Summary of the method: (§2)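 Inhibition was measured as AMC fluorescence from 50 μM substrate, monitored for 30 min at 25 °C, relative to a peptide-free control. Human and rat enzymes were present at 2 nM and 3 nM final, respectively, in 50 mM Tris-HCl pH 7.4, 150 mM NaCl, 10 mM MgCl2, 1 mM CaCl2. Ki derives from fitted IC50 via Cheng–Prusoff.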

[4] = Peptide stability in simulated intestinal fluid (SIF); assay type: in vitro ADME, porcine; settings: simulated gi fluid; 8 h, 37 °C, pH 6.8; read-out: Proteolytic stability: SIF (8 h) % remaining
Summary of the method: as §1

[5] = test system: porcine pancreatin; experiment: as above; assay type: in vitro ADME; settings: after 8 h vs 0 h (TIC); for SIF stability, Residual peptide Average: average of R1-R3; for SIF stability, Residual peptide: single replicates R1-R3
Summary of the method: as §1

[6] = biological target: T2, rat α-thrombin (Rattus norvegicus, UniProt P18292); experiment: Protease inhibition, Ki for rat α-thrombin (fluorogenic substrate Z-Gly-Gly-Arg-AMC); assay type: biochemical; settings: replicates R1-R3
T2 construct: rat α-thrombin (Molecular Innovations) were used at final concentrations of 2 nM and 3 nM; purchased Molecular Innovations
Summary of the method: as §2

[7] = Metabolic stability in rat liver microsomes (RLMs); settings: rat, microsomes
[8] = peptide 1.33E+02 uM, slope of proteolytic substrate cleavage over time
[9] = CL (ul/min/mg protein) R1, RLM CL, replicate R1
[10] = CL (ul/min/mg protein) R2, RLM CL, replicate R2
[11] = CL (ul/min/mg protein) R3, RLM CL, replicate R3
[12] = Half Life (min) R1, RLM metabolic stability, replicate R1, 0-60 min
[13] = Half Life (min) R2, RLM metabolic stability, replicate R2, 0-60 min
[14] = Half Life (min) R3, RLM metabolic stability, replicate R3, 0-60 min
[15] = Metabolic stability: RLM CL (ul/min/mg), RLMs, mean and SD, three measurements

In the case of O=C(N[C@H]1CSCc2cccc(n2)CSCCNC(=O)[C@H](Cc2c[nH]cn2)NC(=O)C2(CCCC2)NC1=O)c1ccc(Cl)s1 [compound 29], the “SGF stability, Residual peptide Average” value [1] is reported as 100.77, the “SGF stability, Residual peptide” value [1] is reported as 105.91 and 102.30 and 94.11 and the remaining at 8 h [1] is reported as 101 ± 8%. For the same compound, the “PAMPA permeability: % permeability” value [2] was 0.16 ± 0.08%, the Papp at 50 μM [2] was 0.00933 ×10⁻⁶ cm/s and the “Permeability% Average” value [2] was 0.157%. The “Permeability% R1” value [2] was 0.22%, the “Permeability% R3” value [2] was 0.18% and the “Human alpha thrombin inhibition, slope normalized to DMSO” value ([3]; peptide 1.02E-03 uM) was 85.3 and 95.8 and 95.4. The “Human alpha thrombin inhibition, slope normalized to DMSO” value ([3]; peptide 1.04E+00 uM) was 95.4 and 93.0 and 98.3, the “Human alpha thrombin inhibition, slope normalized to DMSO” value ([3]; peptide 1.27E-04 uM) was 99.0 and 98.5 and 95.5 and the “Human alpha thrombin inhibition, slope normalized to DMSO” value ([3]; peptide 1.30E-01 uM) was 95.8 and 97.3 and 101.8. For the same compound, the “Human alpha thrombin inhibition, slope normalized to DMSO” value [3, 8] was 27.0 and 31.2 and 38.6, the “Human alpha thrombin inhibition, slope normalized to DMSO” value ([3]; peptide 1.63E-02 uM) was 73.4 and 96.6 and 101.4 and the “Human alpha thrombin inhibition, slope normalized to DMSO” value ([3]; peptide 1.67E+01 uM) was 71.8 and 71.9 and 74.8. The “Human alpha thrombin inhibition, slope normalized to DMSO” value ([3]; peptide 2.03E-03 uM) was 97.6 and 95.9 and 99.5, the “Human alpha thrombin inhibition, slope normalized to DMSO” value ([3]; peptide 2.08E+00 uM) was 93.5 and 84.6 and 95.9 and the “Human alpha thrombin inhibition, slope normalized to DMSO” value ([3]; peptide 2.54E-04 uM) was 96.0 and 96.2 and 102.6. The “Human alpha thrombin inhibition, slope normalized to DMSO” value ([3]; peptide 2.60E-01 uM) was 94.7 and 95.0 and 96.9, the “Human alpha thrombin inhibition, slope normalized to DMSO” value ([3]; peptide 3.18E-05 uM) was 99.1 and 98.5 and 101.4 and the “Human alpha thrombin inhibition, slope normalized to DMSO” value ([3]; peptide 3.26E-02 uM) was 99.8 and 95.1 and 95.9. For the same compound, the “Human alpha thrombin inhibition, slope normalized to DMSO” value ([3]; peptide 3.33E+01 uM) was 58.8 and 60.9 and 67.1, the “Human alpha thrombin inhibition, slope normalized to DMSO” value ([3]; peptide 4.07E-03 uM) was 99.1 and 95.8 and 99.3 and the “Human alpha thrombin inhibition, slope normalized to DMSO” value ([3]; peptide 4.17E+00 uM) was 86.3 and 86.6 and 97.3. For the same compound, the “Human alpha thrombin inhibition, slope normalized to DMSO” value ([3]; peptide 5.09E-04 uM) was 101.5 and 95.7 and 97.4, the “Human alpha thrombin inhibition, slope normalized to DMSO” value ([3]; peptide 5.21E-01 uM) was 92.8 and 93.8 and 98.4 and the “Human alpha thrombin inhibition, slope normalized to DMSO” value ([3]; peptide 6.36E-05 uM) was 106.0 and 98.0 and 105.2. The “Human alpha thrombin inhibition, slope normalized to DMSO” value ([3]; peptide 6.51E-02 uM) was 96.1 and 98.8 and 99.3, the “Human alpha thrombin inhibition, slope normalized to DMSO” value ([3]; peptide 6.67E+01 uM) was 48.6 and 47.5 and 55.0 and the “Human alpha thrombin inhibition, slope normalized to DMSO” value ([3]; peptide 8.14E-03 uM) was 95.7 and 98.2 and 99.1. For the same compound, the “Human alpha thrombin inhibition, slope normalized to DMSO” value ([3]; peptide 8.33E+00 uM) was 83.7 and 83.2 and 97.0, the remaining at 8 h [4] was 92 ± 16% and the “SIF stability, Residual peptide Average” value [5] was 92.07. For the same compound, the “SIF stability, Residual peptide” value [5] was 101.03 and 73.69 and 101.48, the “Rat alpha thrombin inhibition, slope normalized to DMSO” value [6, 8] was 11.0 and 10.6 and 9.7 and the “Rat alpha thrombin inhibition, slope normalized to DMSO” value ([6]; peptide 1.67E+01 uM) was 45.8 and 45.5 and 45.1. The “Rat alpha thrombin inhibition, slope normalized to DMSO” value ([6]; peptide 2.08E+00 uM) was 86.8 and 87.3 and 87.0, the “Rat alpha thrombin inhibition, slope normalized to DMSO” value ([6]; peptide 3.33E+01 uM) was 28.5 and 28.7 and 27.9 and the “Rat alpha thrombin inhibition, slope normalized to DMSO” value ([6]; peptide 4.17E+00 uM) was 77.5 and 87.0 and 76.0. For the same compound, the “Rat alpha thrombin inhibition, slope normalized to DMSO” value ([6]; peptide 6.67E+01 uM) was 19.6 and 18.1 and 18.5, the “Rat alpha thrombin inhibition, slope normalized to DMSO” value ([6]; peptide 8.33E+00 uM) was 63.7 and 62.1 and 64.2 and the microsomal CLint [7, 9] was 10.5 µL/min/mg. For the same compound, the microsomal CLint [7, 10] was 5.63 µL/min/mg, the microsomal CLint [7, 11] was 8.11 µL/min/mg and the half-life [7, 12] was > 60 min. For the same compound, the half-life [7, 13] was > 60 min, the half-life [7, 14] was > 60 min and the microsomal CLint [7, 15] was 8.1 ± 2 µL/min/mg.
With O=C1NCCSCc2cccc(n2)CSC[C@H](NC(=O)c2ccc(Cl)s2)C(=O)N[C@@H](CO)C(=O)NCc2cccc1c2 [compound 27] the “SGF stability, Residual peptide Average” value [1] was 98.89, the “SGF stability, Residual peptide” value [1] was 99.89 and 99.67 and 97.09 and the remaining at 8 h [1] was 99 ± 2%. For the same compound, the “PAMPA permeability: % permeability” value [2] was 2.5 ± 1.2%, the Papp at 50 μM [2] was 0.151 ×10⁻⁶ cm/s and the “Permeability% Average” value [2] was 2.5%. For the same compound, the “Permeability% R1” value [2] was 3.72%, the “Permeability% R3” value [2] was 2.35% and the “Human alpha thrombin inhibition, slope normalized to DMSO” value ([3]; peptide 1.02E-03 uM) was 98.3 and 96.5 and 99.8. The “Human alpha thrombin inhibition, slope normalized to DMSO” value ([3]; peptide 1.04E+00 uM) was 84.1 and 76.8 and 79.3, the “Human alpha thrombin inhibition, slope normalized to DMSO” value ([3]; peptide 1.27E-04 uM) was 100.0 and 98.1 and 101.1 and the “Human alpha thrombin inhibition, slope normalized to DMSO” value ([3]; peptide 1.30E-01 uM) was 95.4 and 96.3 and 96.1. The “Human alpha thrombin inhibition, slope normalized to DMSO” value [3, 8] was 7.7 and 17.1 and 13.6, the “Human alpha thrombin inhibition, slope normalized to DMSO” value ([3]; peptide 1.63E-02 uM) was 97.0 and 96.5 and 98.2 and the “Human alpha thrombin inhibition, slope normalized to DMSO” value ([3]; peptide 1.67E+01 uM) was 27.2 and 28.7 and 30.2. The “Human alpha thrombin inhibition, slope normalized to DMSO” value ([3]; peptide 2.03E-03 uM) was 100.7 and 96.1 and 100.3, the “Human alpha thrombin inhibition, slope normalized to DMSO” value ([3]; peptide 2.08E+00 uM) was 72.7 and 80.3 and 72.0 and the “Human alpha thrombin inhibition, slope normalized to DMSO” value ([3]; peptide 2.54E-04 uM) was 101.2 and 95.7 and 100.6. For the same compound, the “Human alpha thrombin inhibition, slope normalized to DMSO” value ([3]; peptide 2.60E-01 uM) was 93.2 and 89.7 and 91.7, the “Human alpha thrombin inhibition, slope normalized to DMSO” value ([3]; peptide 3.18E-05 uM) was 102.0 and 95.9 and 100.7 and the “Human alpha thrombin inhibition, slope normalized to DMSO” value ([3]; peptide 3.26E-02 uM) was 97.3 and 93.9 and 91.1. For the same compound, the “Human alpha thrombin inhibition, slope normalized to DMSO” value ([3]; peptide 3.33E+01 uM) was 17.1 and 15.9 (2×), the “Human alpha thrombin inhibition, slope normalized to DMSO” value ([3]; peptide 4.07E-03 uM) was 99.1 and 96.8 and 105.4 and the “Human alpha thrombin inhibition, slope normalized to DMSO” value ([3]; peptide 4.17E+00 uM) was 57.2 and 53.3 and 58.0. For the same compound, the “Human alpha thrombin inhibition, slope normalized to DMSO” value ([3]; peptide 5.09E-04 uM) was 99.5 and 108.3 and 102.0, the “Human alpha thrombin inhibition, slope normalized to DMSO” value ([3]; peptide 5.21E-01 uM) was 89.3 and 86.3 and 89.6 and the “Human alpha thrombin inhibition, slope normalized to DMSO” value ([3]; peptide 6.36E-05 uM) was 101.1 and 95.4 and 95.5. The “Human alpha thrombin inhibition, slope normalized to DMSO” value ([3]; peptide 6.51E-02 uM) was 97.1 and 92.8 and 96.9, the “Human alpha thrombin inhibition, slope normalized to DMSO” value ([3]; peptide 6.67E+01 uM) was 14.5 and 13.5 and 16.4 and the “Human alpha thrombin inhibition, slope normalized to DMSO” value ([3]; peptide 8.14E-03 uM) was 99.5 and 100.5 and 98.6. The “Human alpha thrombin inhibition, slope normalized to DMSO” value ([3]; peptide 8.33E+00 uM) was 48.2 and 47.8 and 48.5, the remaining at 8 h [4] was 92 ± 9% and the “SIF stability, Residual peptide Average” value [5] was 91.64. The “SIF stability, Residual peptide” value [5] was 89.51 and 84.30 and 101.11, the “Rat alpha thrombin inhibition, slope normalized to DMSO” value [6, 8] was 3.9 and 4.8 and 10.9 and the “Rat alpha thrombin inhibition, slope normalized to DMSO” value ([6]; peptide 1.67E+01 uM) was 9.1 and 8.9 and 16.0. For the same compound, the “Rat alpha thrombin inhibition, slope normalized to DMSO” value ([6]; peptide 2.08E+00 uM) was 42.2 and 39.9 and 27.8, the “Rat alpha thrombin inhibition, slope normalized to DMSO” value ([6]; peptide 3.33E+01 uM) was 5.4 and 4.9 and 14.0 and the “Rat alpha thrombin inhibition, slope normalized to DMSO” value ([6]; peptide 4.17E+00 uM) was 24.5 and 25.5 and 24.4. The “Rat alpha thrombin inhibition, slope normalized to DMSO” value ([6]; peptide 6.67E+01 uM) was 4.0 and 4.6 and 11.6, the “Rat alpha thrombin inhibition, slope normalized to DMSO” value ([6]; peptide 8.33E+00 uM) was 18.9 and 18.5 and 19.5 and the microsomal CLint [7, 9] was 48.3 µL/min/mg. For the same compound, the microsomal CLint [7, 10] was 57.4 µL/min/mg, the microsomal CLint [7, 11] was 60.2 µL/min/mg and the half-life [7, 12] was 28.7 min. It also gave a half-life [7, 13] of 24.2 min, a half-life [7, 14] of 23 min and a half-life ([7]; Metabolic stability: Half life T1/2 (min), RLMs, mean and SD, three measurements) of 25 ± 2 min. The microsomal CLint [7, 15] was 55 ± 5 µL/min/mg.
